Series [1] can be described thus: Side effects with increasing oral dose and blood levels. In kind it is in vivo. To be noted: as blood levels increase with increased levels of dosing. From the text:
While to date no one has been able to identify a compound which is completely without unwanted CNS side effects at all possible dosage levels, at least one compound has been identified that meets the criteria described above, namely cis-4-cyano-4-[3-(cyclopentyloxy)-4-methoxyphenyl]cyclohexane-1-carboxylic acid. […] This is particularly true with COPD. […] The controlled release formulations of this invention allow for administering in a single dosage form several times the quantity that can otherwise be administered of a PDE4 inhibitor and achieve both initial therapeutically effective blood levels and maintain these blood level for an extended period of time. PDE4 inhibitors, particularly PDE4-specific inhibitors are useful in treating other diseases especially in the areas of inflammation, (e.g., asthma, chronic obstructive pulmonary disease, inflammatory bowel disease, rheumatoid arthritis), affects related to tumor necrosis factor and to cognition impairment (e.g., multi-infarct dementia, cognitive dysfunction, or stroke). This invention is useful in treating these diseases as well. These formulations and the method descibed herein can be used for prophylactic treatment as well. Additional other therapeutic or prophylactic agents can be combined with a PDE4 inhibitor in these formulations as well.

The test system of a further series is PDE 4. In words: IC50 ratio: competing with [3H]R-rolipram binding to high affinity form over inhibiting catalytic activity of low affinity form. In kind it is biochemical. To be noted: 1 nM [3H]R-rolipram binding; 1 uM [3H]-cAMP as substrate. From the text: This invention covers controlled release formulations which contain a PDE 4 inhibitor, particularly an inhibitor that is specific for PDE 4. A preferred group of inhibitors are those that have an IC50 ratio (high/low binding) of about 0.1 or greater as further described in co-pending U.S. application Ser. No. 08/456,274 and its published counter-part PCT application serial number published Jan. 5, 1995 as WO95/00139; this application is incorporated herein in full by reference as if fully set forth herein. A preferred standard for PDE 4-specific inhibitors which can be used in this invention is one where the compound has an IC50 ratio of about 0.1 or greater; said ratio being the ratio of the IC50 value for competing with the binding of 1 nM of [^3H]R-rolipram to a form of PDE 4 which binds rolipram with a high affinity over the IC50 value for inhibiting the PDE 4 catalytic activity of a form which binds rolipram with a low affinity using 1 uM[^3H]-cAMP as the substrate.

For series [2] the following is noted: clinical studies / indications; cited from earlier work.

Molecules are shown by their SMILES. Where two headings read alike, the source gives them in different places.

On to `COc1ccc([C@]2(C#N)CC[C@@H](C(=O)O)CC2)cc1OC1CCCC1` [cis-4-cyano-4-[3-(cyclopentyloxy)-4-methoxyphenyl]cyclohexane-1-carboxylic acid], for which, in series [1], the side effects entry is given as “undesirable side effects such as those attributed to CNS activity begin to be manifested”. The “therapeutic ratio (IC50 ratio high/low binding)” value in the series on PDE 4 is reported as “greater than 0.1”.

In the case of `CCCCn1c(=O)c2c(ncn2CC(C)=O)n(CCCC)c1=O` [denbufylline], in series [2], the side effects entry was “pyrosis, nausea and emesis”.

Regarding `COc1ccc(C2CNC(=O)C2)cc1OC1CCCC1` (stereo not shown) [rolipram], the side effects entry in series [2] is “psychotropic activity and produces gastrointestinal effects, e.g., pyrosis, nausea and emesis”.

The values above are taken from patent US20030211152A1, “Controlled release formulation for treating COPD” (SmithKline Beecham Corporation, priority 1999, published 2003).
